Measured values published in patent publication US6465176B1, “Method for identifying compounds RNA/RNA binding protein interactions” (Message Pharmaceuticals, Inc., priority 1998, dated 2002).

Legend:
[1] = system: IRE RNA / RNA binding protein (K562 protein extract); assay: High throughput filter binding assay, IRE RNA with K562 protein extract; conditions: increasing concentrations: hemin 1 to 100 μM, FeCl3 and desferroxiamine 1 μM to 1 mM
Description: FIG. 3 is a graph of the amount of radioactively labeled RNA retained on a filter (expressed in percent of the amount of RNA retained on a filter in a reference binding solution) following loading of various binding solutions. All of the binding solutions contained radioactively labeled IRE RNA either alone or including various other components. The first column represents a binding solution without RNA binding protein. The remaining columns represent binding solution containing RNA binding protein (K562 extract).
FIG. 5 is a graph of the amount of radioactively labeled RNA retained on a filter (expressed in percent of the amount of RNA retained on a filter in a reference binding solution) following loading of various binding solutions. Alternate columns correspond to binding solutions containing radioactively labeled AUUUA RNA or IRE RNA, either alone or including various other components. The first two column represents binding solutions without RNA binding protein. The remaining columns represent binding solution containing RNA binding protein (K562 extract). Columns 5 through 40 correspond to binding solutions including the indicated amount of the indicated test compound.
All binding reactions were performed in 96-well v-bottom plates in a final volume of 10 μl. The assays were constituted and performed as described below. Specifically, assays were performed by (1) forming a binding solution including RNA molecules, 7.5 mM BTP at pH 8.5, 10 mM KCl, 5 mM MgCl2, 0.2 mM DTT, and 10% glycerol, (2) heating the binding solution to denature the RNA molecules, (3) cooling the binding solution, (4) adding RNA binding proteins to the binding solution, (5) loading the binding solution onto a filter, and (6) detecting the amount RNA retain on the filter. […]
Binding assays were performed with wild-type IRE RNA and K562 protein extract in the presence of sources of iron or iron chelators to determine the ability of the filter assay to detect the modulation of binding interactions by small molecules. […] The reactions were analyzed by gel shifts to visualize the results of the filter assay. […]

[2] = system: His RNA / RNA binding protein; assay: Filter binding competition assay, His RNA; conditions: increasing concentrations of unlabeled RNA
Method: (§1) All binding reactions were performed in 96-well v-bottom plates in a final volume of 10 μl. The assays were constituted and performed as described below. Specifically, assays were performed by (1) forming a binding solution including RNA molecules, 7.5 mM BTP at pH 8.5, 10 mM KCl, 5 mM MgCl2, 0.2 mM DTT, and 10% glycerol, (2) heating the binding solution to denature the RNA molecules, (3) cooling the binding solution, (4) adding RNA binding proteins to the binding solution, (5) loading the binding solution onto a filter, and (6) detecting the amount RNA retain on the filter.
To more fully test the filter assay, competitions were performed with U1 and His RNAs as well. U1 RNA has the sequence AAUCCAUUGCAC UCCGGAUUU (SEQ ID NO:10; M14587). His RNA has the sequence […] (SEQ ID NO:11; X57138). […] The results of the U1 and His filter assay competitions reflect the ability of the assay to detect low affinity as well as higher affinity binding interactions.
Competition studies have been performed using the filter assay in which unlabeled wild-type or mutant RNA is added to the reaction at 100 to 10,000 times the concentration of ^32P-RNA to compete for the protein binding of the radiolabeled RNA. […] In this case, the mutant RNA has a weak binding affinity for the RNA binding protein. […]

[3] = system: U1 RNA / RNA binding protein (K562 extract); assay: Filter binding competition assay, U1 RNA; conditions: increasing concentrations of unlabeled RNA
Description: FIG. 2 is a graph of the amount of radioactively labeled RNA retained on a filter (expressed in percent of the amount of RNA retained on a filter in a reference binding solution) following loading of various binding solutions. All of the binding solutions contained radioactively labeled U1 RNA either alone or including various other components. The first two columns represent binding solutions without RNA binding protein. The remaining columns represent binding solution containing RNA binding protein (K562 extract). […] In this instance, the U1 mutant interacts with less affinity than does the wild type sequence.
as §1
To more fully test the filter assay, competitions were performed with U1 and His RNAs as well. U1 RNA has the sequence AAUCCAUUGCAC UCCGGAUUU (SEQ ID NO:10; M14587). His RNA has the sequence […] […]

[4] = system: AUUUA RNA / RNA binding protein (K562 extract); assay: High throughput filter binding assay, 32P-labeled AUUUA RNA with K562 protein extract (exploratory library screen)
Description: FIG. 4 is a graph of the amount of radioactively labeled RNA retained on a filter (expressed in percent of the amount of RNA retained on a filter in a reference binding solution) following loading of various binding solutions. All of the binding solutions contained radioactively labeled AUUUA RNA either alone or including various other components. The first column represents a binding solution without RNA binding protein. The remaining columns represent binding solution containing RNA binding protein (K562 extract). Columns 3 through 8 correspond to binding solutions including the indicated test compound.
as §1
The library was initially screened at 10 μM against ^32P-labeled AUUUA RNA. Several methods of introducing the compounds into the binding reaction were tested. Initially the compounds were co-incubated with the RNA and protein, producing modest results. Next, preincubation with either the protein extract or the RNA was tried with improved results.
Seventeen compounds were chosen for further analysis at 100 nM, 1 μM and 10 μM using both AUUUA and IRE RNAs based on the results from three screening efforts (Exps. 29-31). Table 1 summarizes the results from these compounds at 10 μM. The results are also shown graphically in FIG. 4. […] Compounds D9 and H2, chosen as negative controls from the initial screening, continued to have no effect in the dose dependent screen (Exp. 33) and were identified as vehicle controls.
A 96 member random compound library was screened with the disclosed high throughput assay. The compounds were initially screened at 10 μM against ^32P-labeled AUUUA RNA. […] Seventeen compounds were chosen for further analysis at 100 nM, 1 μM and 10 μM using both AUUUA and IRE RNA molecules to determine if any selectivity of the compounds could be detected. […] Gel shifts of these compounds using AUUUA RNA confirmed the activity of the inhibitors.

[5] = system: TNF-α production; conditions: previously shown; cited from earlier work
[6] = compound 10 μM, K562 extract, RNA & K562 = 100.00

Q: With `CC(=O)N(O)CCCCCNC(=O)CCC(=O)N(O)CCCCCNC(=O)CCC(=O)N(O)CCCCCN` [Desferroxiamine, desferroxiamine] as the compound, how does the “modulation of IRE/protein binding by small molecules” value (from here on “modulation of IRE/protein binding”) [1] read?
A: did not change the amount IRE/protein complex formed

Q: For “His wild-type RNA: His RNA, sequence AAAAAGGCUCUUUUCAGAGCCACCCA (SEQ ID NO:11) (listed as RNA, chemistry not given here)”, which “competition by unlabeled RNA for binding of labeled His RNA (filter assay)” value [2] is on record?
A: concentration dependent inhibition of binding

Q: Which “modulation of IRE/protein binding” value [1] does the source give for hemin here?
A: concentration-dependent inhibition of binding

Q: With “U1 wild-type RNA: U1 RNA, sequence AAUCCAUUGCAC UCCGGAUUU (SEQ ID NO:10) (AAUCCAUUGCACUCCGGAUUU; listed as RNA, chemistry not given here)” as the compound, how does the “competition by unlabeled RNA for binding of labeled U1 RNA (filter assay)” value [3] read?
A: concentration dependent inhibition of binding

Q: For `C/C(=N\NC(=N)N)c1cc(NC(=O)CCCCCCCCC(=O)Nc2cc(/C(C)=N/NC(=N)N)cc(/C(C)=N/NC(=N)N)c2)cc(/C(C)=N/NC(=N)N)c1` [Compound G10, CNI-1493], which “effect on counts over the 4 experiments” value ([4]; 10 μM) is on record?
A: substantial increase in counts in 3 of the 4 experiments

Q: What about the “Avg. % (labeled RNA retained on filter, average of Experiments #29-#31 and #33)” value ([4]; compound 10 μM, K562 extract) of the same compound?
A: 111.00%

Q: What about the “Labeled RNA retained on filter, percent of RNA & K562 reference, Experiment #29” value [4, 6] of the same compound?
A: 114.53%

Q: And the “Labeled RNA retained on filter, percent of RNA & K562 reference, Experiment #30” value [4, 6]?
A: 66.94%

Q: What about the “Labeled RNA retained on filter, percent of RNA & K562 reference, Experiment #31” value [4, 6] of the same compound?
A: 127.28%

Q: What about the “Labeled RNA retained on filter, percent of RNA & K562 reference, Experiment #33” value [4, 6] of the same compound?
A: 135.24%

Q: And the “effect on TNF-α production” value [5]?
A: post-transcriptionally inhibit TNF-α production

Q: With `[Cl][Fe]([Cl])[Cl]` [FeCl3] as the compound, how does the “modulation of IRE/protein binding” value [1] read?
A: concentration-dependent inhibition of binding
